Experimental data as given in US20170165253A1, “TREATMENT OF SEXUAL DYSFUNCTION AND FOR IMPROVED SEXUAL QUALITY OF LIFE” (ReJoy, priority 2015, published 2017).
Where a name gives a salt, the structure may show the parent alone.

How the values were obtained:
NAC = experiment: Acetylcholine receptor agonists: nipple erection and sensitivity (Example 13); format: in vivo, human; details: single topical dose to one NAC, one subject per agent; for Onset Time: 0.4-12.5 mg/cm^2
Experimental: A study was conducted to assess the effectiveness of different acetylcholine receptor agonists on eliciting nipple erection and increasing nipple sensitivity in normal women aged 18-65. Ten subjects were recruited. Each subject was randomly assigned a single agonist. Each subject self-administered a single dose of the agonist to one NAC that was self-reported as the least sensitive (or if no differential sensitivity, then the left NAC). The agonists were applied in topical solutions to the NAC. The subject was supervised by a medical professional. Blood pressure and heart rate were monitored at baseline, 5 minutes, 10 minutes, and 30 minutes. […] Subjects were asked to report if they experienced nipple erection and sensitivity in less than 10 minutes and if the effect lasted more or less than 10 minutes. The subjects all responded to the agonists. The effect was short-lived; however, sensitivity is some of the subjects was reported up 60 minutes later.

areola = experiment: Dose study of nipple erection and sensitivity, topical oxymetazoline (Example 7); format: in vivo, human; details: 0.5% topical solution
Experimental: Oxymetazoline HCl 0.1%, 0.2%, 0.5%. A study was conducted to assess the dosage of topical oxymetazoline solution required to elicit nipple erection and sensitivity. Five premenopausal subjects participated in the study. Subjects were not hypertensive, pregnant or breastfeeding. Three formulations were used: Formula A: 0.1% topical oxymetazoline hydrochloride solution; Formula B: 0.2% topical oxymetazoline hydrochloride solution; Formula C: 0.5% topical oxymetazoline hydrochloride solution.
The study was conducted over 3 days. On day 1, subjects were instructed to apply Formula A to both areolas. On day 2, subjects were instructed to apply Formula B to both areolas. On day 3, subjects were instructed to apply Formula C to both areolas. 0.1 mL of each formula was applied using a metered dosage dispenser to each areola. […] With the 0.5% topical oxymetazoline solution, response in nipple erection and sensitivity was obtained approximately within 1 hour and lasted over 8 hours.

Row | SMILES | Nipple Erection (Yes/No) (NAC) | Nipple Sensitivity (Yes/No) (NAC) | Nipple Sensitivity Effect Duration (NAC) | Onset Time (NAC) | duration of response (areola) | time to response in nipple erection and sensitivity (areola)
1 | CC1OC2(CS1)CN1CCC2CC1 (stereo not shown) [Cevimeline] | Yes | Yes | <10 min | <10 min | – | –
2 | CC[C@@H]1C(=O)OC[C@@H]1Cc1cncn1C [Pilocarpine] | Yes | Yes | <5 min | <10 min | – | –
3 | CC(=O)OC(C)C[N+](C)(C)C.[Cl-] (stereo not shown) [Mecholyl] | Yes | Yes | <10 min | <10 min | – | –
4 | CC(=O)OCC[N+](C)(C)C [Acetylcholine] | – | – | <5 min | <10 min | – | –
5 | CC(C[N+](C)(C)C)OC(N)=O (stereo not shown) [Bethanechol] | Yes | Yes | <10 min | <10 min | – | –
6 | CC(=O)OC(C)C[N+](C)(C)C (stereo not shown) [Methacholine] | Yes | Yes | <10 min | <10 min | – | –
7 | CN1CCCC1c1cccnc1 (stereo not shown) [Nicotine] | Yes | Yes | <10 min | <10 min | – | –
8 | CCN(CC)CCNC(=O)c1cc(Cl)c(N)cc1OC [Metaclopramide] | Yes | Yes | <10 min | <10 min | – | –
9 | CN1[C@@H](CC(=O)c2ccccc2)CCC[C@H]1C[C@H](O)c1ccccc1 [Alpha-Lobeline] | Yes | Yes | <10 min | <10 min | – | –
10 | Cc1cc(C(C)(C)C)c(O)c(C)c1CC1=NCCN1 [oxymetazoline, oxymetazoline hydrochloride] | – | – | – | – | over 8 hours | ≤ 1 h
11 | C[N+](C)(C)CCOC(N)=O [Carbachol] | Yes | Yes | <10 min | <10 min | – | –
